Assay results as given in PMC2859832 (Journal of medicinal chemistry, 2009).
Where two headings read alike, the source gives them in different places. Starred links: 1 amine or outer side, 2 acyl side, 3 side chain; linkers in the order of their positions; H or OH if unused. Non-standard residues stand in square brackets, D forms with d. *: point of attachment. mPro = cis-3,4-methanoproline, O=C([C@@H]1[C@@H]2C[C@@H]2CN1[*:1])[*:2]; pY = N[C@@H](Cc1ccc(OP(=O)(O)O)cc1)C(=O)O; Hydrocinnamoyl = O=C(CCc1ccccc1)*; NHBn = c1ccc(CN*)cc1

How the values were obtained:
SH2 domain of Stat3 [1] = biological target: T1, SH2 domain of Stat3 (Homo sapiens, UniProt P40763); assay: fluorescence polarization; assay type: binding; conditions: for fold lower affinity than the unsubstituted methyl group: relative to 4-methyl Aba peptide (17)
T1 sequence (P40763 whole entry, the tested form may be a part): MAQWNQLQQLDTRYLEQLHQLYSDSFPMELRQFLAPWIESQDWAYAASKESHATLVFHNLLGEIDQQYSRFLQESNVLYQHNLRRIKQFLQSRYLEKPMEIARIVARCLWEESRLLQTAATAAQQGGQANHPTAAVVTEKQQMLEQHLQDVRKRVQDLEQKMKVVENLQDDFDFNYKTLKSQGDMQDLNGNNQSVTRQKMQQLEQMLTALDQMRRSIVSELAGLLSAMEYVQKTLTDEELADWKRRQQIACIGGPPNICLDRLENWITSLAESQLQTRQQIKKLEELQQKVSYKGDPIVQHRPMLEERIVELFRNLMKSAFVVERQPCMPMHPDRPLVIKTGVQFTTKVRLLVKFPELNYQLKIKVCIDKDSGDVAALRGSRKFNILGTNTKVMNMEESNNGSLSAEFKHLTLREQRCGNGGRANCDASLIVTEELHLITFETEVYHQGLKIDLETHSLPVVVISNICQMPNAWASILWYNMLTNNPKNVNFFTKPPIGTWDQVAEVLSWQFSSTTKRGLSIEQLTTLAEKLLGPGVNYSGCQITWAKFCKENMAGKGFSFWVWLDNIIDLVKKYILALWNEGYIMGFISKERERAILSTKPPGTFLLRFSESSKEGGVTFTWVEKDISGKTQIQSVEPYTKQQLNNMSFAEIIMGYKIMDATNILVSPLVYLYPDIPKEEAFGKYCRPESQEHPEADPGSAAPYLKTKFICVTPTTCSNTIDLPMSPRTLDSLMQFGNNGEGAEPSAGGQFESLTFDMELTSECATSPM

SH2 domain of Stat3 [2] = biological target: T1, SH2 domain of Stat3; conditions: FP assay; ref [8]; cited from earlier work

Compound: CC(C)C[C@H](NC(=O)/C=C/c1ccc(OP(=O)(O)O)cc1)C(=O)N1CCC[C@H]1C(=O)N[C@H](C)CNC(N)=O [Peptide 39]
- fold loss in activity on addition of a methyl group (SH2 domain of Stat3 [1]; relative to 2-aminoethylurea peptide 38): 10 fold

Compound: CC(C)C[C@H](NC(=O)/C=C/c1ccc(OP(=O)(O)O)cc1)C(=O)N1CCC[C@H]1C(=O)N[C@@H](COC(N)=O)[C@H](C)OCc1ccccc1 [Peptide 37]
- IC50 (SH2 domain of Stat3 [1]): 6.9 µM

Compound: CC(C)C[C@H](NC(=O)/C=C/c1ccc(OP(=O)(O)O)cc1)C(=O)N1CCC[C@H]1C(=O)N[C@H](CN)CCC(N)=O [Peptide 30]
- fold lower affinity than the unsubstituted methyl group (SH2 domain of Stat3 [1]): 10 fold

Compound: CC(C)C[C@H](NC(=O)/C=C/c1ccc(OP(=O)(O)O)cc1)C(=O)N1CCC[C@H]1C(=O)N[C@@H](CCC(N)=O)CN(Cc1ccccc1)Cc1ccccc1 [Peptide 29]
- fold lower affinity than the unsubstituted methyl group (SH2 domain of Stat3 [1]): 7 fold

Compound: hydrocinnamoyl-pTyr-Leu-mPro-Gln-NHBn (Hydrocinnamoyl-[pY]L[mPro]Q-NHBn; SMILES CC(C)C[C@H](NC(=O)[C@H](Cc1ccc(OP(=O)(O)O)cc1)NC(=O)CCc1ccccc1)C(=O)N1C[C@H]2C[C@H]2[C@H]1C(=O)N[C@@H](CCC(N)=O)C(=O)NCc1ccccc1)
- IC50 (SH2 domain of Stat3 [2]): 0.125 µM

Compound: CC(C)C[C@H](NC(=O)/C=C/c1ccc(OP(=O)(O)O)cc1)C(=O)N1C[C@H]2C[C@H]2[C@H]1C(=O)N[C@@H](CCC(N)=O)C(=O)NCc1ccccc1 [Peptide 40, pCinn-Leu-cis-3,4-methanoPro-Gln-NHBn]
- fold increase in affinity on incorporation of cis-3,4-methanoPro (SH2 domain of Stat3 [1]; relative to peptide 2): 2 fold
